The values below come from patent US20090118225A1, “1-Methyl Nicotinamide and Derivatives for Treatment of Gastric Injury” (Cortria Corporation, priority 2007, published 2009).

Data set [1] concerns I/R-induced gastric lesions. The experiment in a line: Ischemia-reperfusion (I/R)-induced gastric lesion model. Format: in vivo, Male Wistar rats. As for the experimental part: (§1) Male Wistar rats, weighing 180-220 grams were fasted for 24 hours before subjecting to experimentation were employed in all studies. The animals were divided into groups for the following types of induced gastric lesions: ethanol-; aspirin (acetylsalicylic acid; ASA)-; stress-; and ischemia-reperfusion (I/R)-induced gastric lesions. In the first group, gastric lesions were produced by intragastric (i.g.) application of ethanol (75%), in the second group by i.g. application of acidified ASA (125 mg/kg), in the third group by animal exposure to 3.5 hours of water immersion (and restraint stress (WRS), in the fourth group by ischemia (by clamping celiac artery for 30 minutes followed by release of the clamp (reperfusion for 3 hours) (I/R).
(§2) The following experiments were designed to assess the therapeutic effect of 1-MNA on induced gastric lesions.
(§3) To assess gastric blood flow (GBF) laser Doppler flowmeter (Laserflo, model BPM 403A, Blood Perfusion Monitor, Vasamedics, St. Paul, Minn., USA) was used. The animals were anaesthetized with Vetbutal 50 mg/kg (Biowet, Pu^3awy, Poland), then the abdomen was opened and the stomach was exposed to assess the GBF. Blood flow was measured on anterior and posterior wall of stomach. The mean values of these measurements were calculated and expressed as percent change from value recorded in the intact mucosa.
(§4) To establish the number and area of gastric lesions, computerized planimetry (Morphomat, Carl Zeiss, Berlin, Germany) was used. Results are expressed as mm.

Data set [2] deals with WRS-induced gastric lesions. Briefly: Water immersion and restraint stress (WRS)-induced gastric lesion model. To be noted: for effect on the protection by 1-MNA with respect to gastric lesions / effect on the protective property of 1-MNA as measured by mean lesion number and plasma levels of IL-1β and TNFα: COX inhibitor pretreatment plus 1-MNA; for lesion numbers after COX inhibitor pretreatment before 1-MNA and WRS: indomethacin 5 mg/kg i.p., SC-560 5 mg/kg i.g. or rofecoxib 10 mg/kg i.g., versus absence of inhibitor; for effect on gastroprotection and the accompanying rise in the GBF induced by 1-MNA: summary of inhibitor experiments. Format: in vivo, Male Wistar rats. The method, then: as §1, §2, §3, §4
(§5) A venous blood sample was withdrawn from the vena cava into EDTA-containing vials in order to determine the plasma level of interleukin-1 beta (IL-1β) and tumor necrosis factor alpha (TNFα) by ELISA technique (BioSource International, Camarillo, Calif., USA).

For data set [3], the system named is ethanol-induced gastric lesions. Briefly: Ethanol-induced gastric lesion model. In kind it is in vivo, Male Wistar rats. The method, then:
as §1, §2, §3, §4

The subject of another data set is gastric acid output. Briefly: Gastric acid output in rats having chronic gastric fistula (GF). In kind it is in vivo. The method, then: The following experiments were designed to compare the effects of pretreatment with vehicle and 1-MNA or NA on stress-induced gastric lesions and the accompanying changes in gastric blood flow (GBF) and gastric tissue activities of MDA and SOD and plasma pro-inflammatory cytokine IL-1β and TNF-α levels. These sets of experiments were based on the observation that 1-MNA was able to reduce the gastric output in rats having chronic gastric fistula (GF). Rats with chronic GF were administered with 1-MNA, NA, or a vehicle control.

For the next data set, the system named is acetic acid ulcer. Briefly: Acetic acid ulcer area and GBF in rats with and without rofecoxib. Format: in vivo. From the text:
The following experiments were designed to assess the effects of 1-MNA on acetic acid ulcer area and GBF in rats administered with and without a selective COX-2 inhibitor (e.g., rofecoxib).

In data set [4] the test system is diabetes and stress-induced gastric damage. The experiment in a line: Combined diabetes and stress-induced gastric damage model. Format: in vivo, rats.
Source text: as §5
The next set of experiments was designed to assess the therapeutic effects of 1-MNA in a combined diabetic and stress-induced gastric damage model.
Insulin-dependent diabetes exerts various influences on gastric functions, such as acid secretion and gastric emptying. It has observed that aggravation of gastric mucosal ulcerogenic responses occurs in diabetic rats. Furthermore, deleterious influence of diabetes on the healing of gastric mucosal lesions has been observed in diabetic rats.

The subject of data set [5] is ASA-induced gastric lesions. The experiment in a line: Acidified ASA-induced gastric lesion model. Format: in vivo, Male Wistar rats. The method, then: as §1, §2, §3, §4
For lipid peroxydation in investigated groups, the determination of the levels of malondialdehyde (MDA) and 4 hydroxynonenal (4-HNE) was carried out and their levels were used as indicators of lipid peroxidation. The procedure of MDA and 4-HNE determination was following: 600 mg of gastric mucosa was excised. Then […] 0.5 M BHT (butylated hydroxytoluene) was added in order to prevent sample oxidation. This sample was subsequently homogenized in 20 mM Tris for 15 sec. in pH 7.4. The homogenate was centrifuged (3,000 g at 4° C. for 10 minutes). Obtained clear supernatant was stored at −80° C. prior to testing. The colorimetric assay for lipid peroxidation (Bioxytech LPO-586, Oxis, Portland, USA) was used to determine the MDA and 4-HNE tissue concentration. This assay is based on the reaction of a chromogenic reagent N-methyl-2-phenylindole with MDA and 4-HNE at 45° C. This reaction yields a stable chromophore with maximal absorbance at 586 nm. This absorbance was measured by spectrophotometer Marcel s300, Warsaw, Poland. Results were expressed as nanomole per gram of tissue (nmol/g).
To determine activity of superoxide dismutase (SOD), a sample of gastric mucosa was taken, as described above. The calorimetric assay for assessment of SOD activity (Bioxytech, SOD-525, Oxis, Portland, USA) was used. This method is based on the SOD-mediated increase in the rate of autooxidation of tetrahydrobenzofluorene in aqueous alkaline solution to yield a chromophore with maximum absorbance at 525 nm. This absorbance was measured by spectrophotometer Marcel s300, Warsaw, Poland. Outcomes were expressed as units per gram of tissue (U/g).
The next set of experiments were designed to measure myeloperoxidase (MPO), malondialdehyde (MDA) and 4-hydroxynonenal (4-HNE), and superoxide dismutase (SOD) activities in rat stomach exposed to acidified ASA as indicators of the prognosis of gastric mucosa injury. To evaluate the inflammatory changes, myeloperoxidase (MPO) activity in the gastric mucosa was measured. MPO activity was measured by enzyme assay. MDA and 4-HNE in tissue are accepted as major products of lipid peroxidation and thus are considered as indicators of mucosa injury by reactive oxygen species (ROS). Organisms have several enzymatic systems that scavenge ROS and prevent their destructive action. The major antioxidative enzyme is superoxide dismutase (SOD).

Where [6] appears, read: ischemia 30 minutes, reperfusion 3 hours, pretreatment.
[7] abbreviates: WRS 3.5 hours, pretreatment 30 minutes prior.
Where [8] appears, read: ethanol (75%) i.g., pretreatment.
Setting [9] is: acidified ASA 125 mg/kg i.g., pretreatment.
The mark [10] stands for this setting: comparison of protective properties.
Where [11] appears, read: WRS, administration of 16,16-dimethyl PGE2.

`N=C(NCCC[C@H](N)C(=O)O)N[N+](=O)[O-]` [L-NNA, NG-nitro-L-arginine, reference compound]: the “effect on the therapeutic effects of 1-MNA on gastric lesions” value in data set [1] (L-NNA 20 mg/kg i.p.) was “reverse the therapeutic effects of 1-MNA”.
For `COc1ccc2c(c1)c(CC(=O)O)c(C)n2C(=O)c1ccc(Cl)cc1` [indomethacin], in data set [2] (WRS), the “effect on the protection by 1-MNA with respect to gastric lesions” value (“effect on the protection by 1-MNA” below) was “significantly inhibited the protection by 1-MNA”; the “effect on the protective property of 1-MNA as measured by mean lesion number and plasma levels of IL-1β and TNFα” value (“effect … of IL-1β and TNFα” for short) was “significantly inhibited the protective property of 1-MNA”. For the same molecule, in data set [2], the “lesion numbers after COX inhibitor pretreatment before 1-MNA and WRS” value is listed as “increase of lesion numbers”; the “effect on gastroprotection and the accompanying rise in the GBF induced by 1-MNA” value (shortened to “effect … in the GBF induced by 1-MNA”) is recorded as “significantly attenuated”.
Regarding `CS(=O)(=O)c1ccc(C2=C(c3ccccc3)C(=O)OC2)cc1` [rofecoxib], in data set [2] (WRS), the “effect on the protection by 1-MNA” value is “significantly inhibited the protection by 1-MNA”; the “effect … of IL-1β and TNFα” value is listed as “significantly inhibited the protective property of 1-MNA”. In data set [2], the “lesion numbers after COX inhibitor pretreatment before 1-MNA and WRS” value was “increase of lesion numbers”; the “effect … in the GBF induced by 1-MNA” value is given as “significantly attenuated”. Also, the “number of lesions after COX inhibitor pretreatment in the absence of 1-MNA” value in data set [3] (indomethacin 5 mg/kg i.p., SC-560 5 mg/kg i.g. or rofecoxib 10 mg/kg i.g., versus no inhibitor) is “increased the number of lesions”.
Take `COc1cc(CNC(=O)CCCC/C=C/C(C)C)ccc1O` [capsaicin]: the “effect of capsaicin denervation on the protection induced by 1-MNA with respect to gastric lesions” value in data set [2] (WRS, capsaicin 125 mg/kg s.c.) was “significantly inhibit the protection induced by 1-MNA”. In addition, the “effect … in the GBF induced by 1-MNA” value in data set [2] is “significantly attenuated”.
Turning to `Oc1cc2c(cc1O)CN(C(=S)NCCc1ccc(Cl)cc1)CCC2` [capsazepine], the “effect on the protective property of 1-MNA as measured by mean lesion number and gastric blood flow” value in data set [2] (WRS, capsazepine 5 mg/kg s.c.) is reported as “reduced the protective property of 1-MNA”. For the same molecule, the “effect … in the GBF induced by 1-MNA” value in data set [2] is listed as “significantly attenuated”.
`C[n+]1cccc(C(N)=O)c1` [1-MNA, 1-methyl nicotinamide]: the “dose dependence of the ability to inhibit gastric output” value with gastric acid output is “increased with increasing dosage”. In addition, the “suppression of gastric acid output compared with NA” value in the data set with gastric acid output (1-MNA versus NA) is “more effectively than NA”. Further, the gastric acid output result in the data set with gastric acid output (1-MNA, NA or vehicle control) is reported as “decrease the gastric acid output”. Further, in data set [1] (setting [6]), the gastric blood flow result was “increased gastric blood flow” and the lesion number entry is “decreased lesion number”. Also, in the data set on acetic acid ulcer (rats given rofecoxib), the “GBF in the ulcer area” value is reported as “increase the GBF in the ulcer area” and the ulcer area entry is listed as “reduce the ulcer area in rats given rofecoxib”. Besides, in the data set on acetic acid ulcer (without rofecoxib), the “GBF in the ulcer area” value is reported as “increase the GBF in the ulcer area” and the ulcer area entry is on record as “reduce the ulcer area”. Also, in data set [2] (setting [7]), the gastric blood flow result was “increased gastric blood flow” and the lesion number entry is “decreased lesion number”. In data set [2] (WRS model), the “plasma level of IL-1β” value was “decrease the plasma levels” and the “plasma level of TNFα” value is reported as “decrease the plasma levels”. Besides, the “reduction of lesion number compared with NA” value (“reduction of lesion number” below) in data set [2] (WRS, 1-MNA versus NA) is “more effectively than NA”. In data set [4], the mean lesion number result is reported as “reduce mean lesion number”, the “plasma level of IL-1β” value is “decrease” and the “plasma level of TNFα” value is reported as “decrease”. In addition, in data set [3] (setting [8]), the gastric blood flow result is reported as “increased gastric blood flow” and the lesion number result is on record as “decreased lesion number”. For the same molecule, in data set [3] (ethanol model, 1-MNA versus NA), the “increase of gastric blood flow compared with NA” value is listed as “more effectively than NA” and the “reduction of lesion number” value was “more effectively than NA”. Moreover, the “mean lesion number in animals pretreated with either indomethacin, SC-560, or rofecoxib” value in data set [3] (ethanol model, presence of 1-MNA) is recorded as “significantly reduced”. Moreover, in data set [5] (1-MNA versus NA), the “increase of gastric blood flow compared with NA” value is on record as “more effectively than NA” and the “reduction of lesion number” value was “more effectively than NA”. Further, in data set [5] (ASA-induced lesions), the “levels of 4-HNE in gastric mucosa” value is given as “decreasing”, the “levels of MDA in gastric mucosa” value is on record as “decreasing”, the “levels of MPO in gastric mucosa” value is given as “lowering the levels of MPO” and the “levels of SOD in gastric mucosa” value is listed as “increasing the levels of SOD”. For the same molecule, in data set [5] (setting [9]), the gastric blood flow result is recorded as “increased gastric blood flow” and the lesion number entry is “decreased lesion number”. For the same molecule, in data set [5] (setting [10]), the “increasing GBF, compared with ranitidine, NO-ASA and SIN-1” value is “equally effective”; the “increasing luminal NO, compared with ranitidine, NO-ASA and SIN-1” value was “equally effective”; the “reducing mean lesion number, compared with ranitidine, NO-ASA and SIN-1” value is “equally effective”.
In the case of calcitonin gene related peptide [CGRP], the “effect on the deleterious effects of capsazepine” value in data set [2] (WRS, addition of CGRP) is reported as “counter the deleterious effects of casazepine”. Also, the “effect on the deleterious effects of capsaicin-induced denervation” value in data set [2] (WRS, addition of CGRP to 1-MNA in denervated rats) is “counteracted the deleterious effects of capsaicin-induced denervation”.
As for `COc1ccc(-n2nc(C(F)(F)F)cc2-c2ccc(Cl)cc2)cc1` [SC-560], in data set [2] (WRS), the “effect on the protection by 1-MNA” value is given as “significantly inhibited the protection by 1-MNA”; the “effect … of IL-1β and TNFα” value is listed as “significantly inhibited the protective property of 1-MNA”. In addition, in data set [2], the “effect … in the GBF induced by 1-MNA” value is reported as “significantly attenuated”.
`CCCCC(C)(C)[C@H](O)/C=C/[C@H]1[C@H](O)CC(=O)[C@@H]1C/C=C\CCCC(=O)O` [16,16-dimethyl PGE2]: in data set [2] (setting [11]), the “gastric damage induced by either indomethacin, SC-560, or rofecoxib” value was “successful in preventing the gastric damage” and the mean lesion number result is listed as “sufficient to decrease the mean lesion number”.
